Earlier results as cited in US11051972B1 (priority 2020, dated 2021).
Where two headings read alike, the source gives them in different places.

How the values were obtained:
[1] = test system: novel coronavirus (COVID-19); details: multi-center study in China, journal article [14, 20]

SMILES	effectiveness against the novel coronavirus (COVID-19) [1]	% Excreted Unchanged or Active Metabolite in Urine (in vivo) [%]	% Excreted Unchanged or Active Metabolite in Urine (urine) [%]
CCN(CC)CCCC(C)Nc1ccnc2cc(Cl)ccc12 (stereo not shown) [Chloroquine]	effective	70	–
C[C@H]1COc2c(N3CCN(C)CC3)c(F)cc3c(=O)c(C(=O)O)cn1c23 [Levaquin]	–	85	–
CCC(CC)[C@H](NC(C)=O)[C@@H]1[C@H](O)[C@@H](C(=O)O)C[C@H]1N=C(N)N [Rapivab]	–	–	90
CC(=O)N[C@H]1[C@H]([C@H](O)[C@H](O)CO)OC(C(=O)O)=C[C@@H]1N=C(N)N [Relenza]	–	–	90
CCC(CC)COC(=O)[C@H](C)N[P@](=O)(OC[C@H]1O[C@@](C#N)(c2ccc3c(N)ncnn23)[C@H](O)[C@@H]1O)Oc1ccccc1 [Remdesevir]	–	–	60
CCOC(=O)C1=C[C@@H](OC(CC)CC)[C@H](NC(C)=O)[C@@H](N)C1 [Tamiflu]	–	–	90
